Our source for the ED50 values is patent publication EP0026746A1, “Combinatory compositions for use in a method for enhancing the activity of antibiotics, antibiotic preparations having enhanced activity and process for their production” (CIBA-GEIGY AG, priority 1979, dated 1981).

Holding throughout (assay): Mouse protection test, i.p. infection, survival ED50
What all share (assay type): in vivo

Assay [1] deals with Streptococcus pyogenes 38. To be noted: Streptococcus pyogenes, 38, sc, 96 h, mice, 0.6 x 10^4 cfu i.p., s.c. immediately and 3 h after infection, survivors after 4 days. The text has this:
(§1) Die hohe antibiotische Wirkung des neuen Verfahrens und der neuen Präparate kann durch "in vivo"-Versuche nachgewiesen werden, die an verschiedenen Tierarten, insbesondere an Säugetieren, wie Mäusen, durchgeführt werden. Dazu infiziert man sie mit einer letalen oder sub-letalen Dosis eines pathogenen Microorganismus und gibt dann das genannte neue Präparat bzw. die einzelnen Dosen an Muramylpeptid und Antibiotikum. Die Wirkung wird als ED bestimmt, das ist diejenige Dosis bei denen […] der Tiere überleben.
(§2) Beispiel 4: Man infiziert weisse Laboratoriums-Mäuse auf i.p. Wege mit den in der nachfolgenden Tabelle angeführten pathogenen Mikroorganismen in Salzlösung, so dass 90-100% der nicht behandelten Kontrolltiere innerhalb von 48 Stunden getötet werden. Unmittelbar, sowie 3 Stunden nach der Infektion werden Gruppen zu je 10 Mäusen mit Cefroxadin, sowohl allein (ohne MDP oder nMDP) als auch in Kombination mit N-Acetyl-muramyl-L-alanyl-D-isoglutamin (MDP) bzw. mit N-Acetyldesmethylmuramyl-L-alanyl-D-isoglutamin (nMDP) behandelt, wobei dieselben zweimal in Form wässriger Lösungen oder Suspensionen auf subkutanem Weg verabreicht wurden. Nach 4 bzw. […] Die meisten dieser Versuche wurden zweifach ausgeführt und die Mittelwerte ermittelt.

Assay [2] deals with Klebsiella pneumoniae 329. To be noted: Klebsiella pneumoniae, 329, sc, 96 h, mice, 2 x 10^4 cfu i.p., s.c. immediately and 3 h after infection, survivors after 4 days.
Text: as §1, §2

Assay [3] relates to Klebsiella pneumoniae 327. To be noted: Klebsiella pneumoniae, 327, sc, mice, 60 x 10^4 cfu i.p., s.c. immediately and 3 h after infection, survivors.
Text: as §1, §2

The test system of assay [4] is Staphylococcus aureus 2999. To be noted: Staphylococcus aureus, 2999, sc, 96 h, mice, 20 000 x 10^4 cfu i.p., s.c. immediately and 3 h after infection, survivors after 4 days.
Text: as §1, §2

Another assay concerns Pasteurella multocida. Conditions: sc, mice, 0.1 x 10^4 cfu i.p., s.c. immediately and 3 h after infection, survivors.
Text: as §1, §2

Assay [5] concerns Salmonella typhimurium 273. Conditions: Salmonella enterica, sc, 240 h, mice, 400 x 10^4 cfu i.p., s.c. immediately and 3 h after infection, results after 10 days.
Text: as §1
(§3) Beispiel 4: Man infiziert weisse Laboratoriums-Mäuse auf i.p. Wege mit den in der nachfolgenden Tabelle angeführten pathogenen Mikroorganismen in Salzlösung, so dass 90-100% der nicht behandelten Kontrolltiere innerhalb von 48 Stunden getötet werden. Unmittelbar, sowie 3 Stunden nach der Infektion werden Gruppen zu je 10 Mäusen mit Cefroxadin, sowohl allein (ohne MDP oder nMDP) als auch in Kombination mit N-Acetyl-muramyl-L-alanyl-D-isoglutamin (MDP) bzw. mit N-Acetyldesmethylmuramyl-L-alanyl-D-isoglutamin (nMDP) behandelt, wobei dieselben zweimal in Form wässriger Lösungen oder Suspensionen auf subkutanem Weg verabreicht wurden. Nach 4 bzw. 10 Tagen nach erfolgter Infektion wurden die überlebenden Tiere gezählt. Die meisten dieser Versuche wurden zweifach ausgeführt und die Mittelwerte ermittelt.

The subject of assay [6] is Salmonella typhimurium 277. To be noted: Salmonella enterica, sc, 240 h, mice, 40 x 10^4 cfu i.p., s.c. immediately and 3 h after infection, results after 10 days.
Text: as §1, §3

One may read the ED50 as the midpoint of the dose-response relation. As for `COC1=C(C(=O)O)N2C(=O)[C@@H](NC(=O)[C@H](N)C3=CCC=CC3)[C@H]2SC1` [Cefroxadin, 7ß-[D-2-amino-2-(1,4-cyclohexadienyl)-acetamido]-3-methoxy-3-cephem-4-carbonsäure], the ED50 is 0.18 mg/kg in assay [1] (mit 10 mg/kg MDP); 0.17 mg/kg in assay [1] (mit 10 mg/kg nMDP); 0.21 mg/kg in assay [1] (ohne MDP oder nMDP); 4.5 mg/kg in assay [2] (mit 10 mg/kg MDP); less than 2.5 mg/kg in assay [2] (mit 10 mg/kg nMDP); 14.2 mg/kg in assay [2] (ohne MDP oder nMDP). The ED50 in assay [3] (mit 10 mg/kg MDP) was less than 50 mg/kg; in assay [3] (mit 10 mg/kg nMDP), less than 50 mg/kg; in assay [3] (ohne MDP oder nMDP), 75 mg/kg; in assay [4] (mit 10 mg/kg MDP) it was 45 mg/kg; in assay [4] (mit 10 mg/kg nMDP) it was 35 mg/kg; in assay [4] (ohne MDP oder nMDP) it was 58 mg/kg. The 50% effective dose (ED50) in the assay with Pasteurella multocida (mit 10 mg/kg MDP) was 37 mg/kg; in the assay on Pasteurella multocida (mit 10 mg/kg nMDP) it was 70 mg/kg; in the assay with Pasteurella multocida (ohne MDP oder nMDP) it was 109 mg/kg; in assay [5] (mit 10 mg/kg MDP), 22.5 mg/kg; in assay [5] (mit 10 mg/kg nMDP), 14 mg/kg; in assay [5] (ohne MDP oder nMDP) it was 39 mg/kg. Besides, the 50% effective dose (ED50) in assay [6] (mit 10 mg/kg MDP) came out at 7.6 mg/kg; in assay [6] (mit 10 mg/kg nMDP) it was 11 mg/kg; in assay [6] (ohne MDP oder nMDP), 22.5 mg/kg.
